Columns and labels:
Experiment in all cases: KINOMEscan (ScanMAX) kinase profiling
Format in all cases: binding
[1] = target: T1, panel of 468 kinases (Homo sapiens, UniProt Q6P3R8); settings: NEK5; 1 μM; read-out: % control
T1 construct: purchased KINOMEscan (ScanMAX) service
T1 sequence (Q6P3R8 1-708): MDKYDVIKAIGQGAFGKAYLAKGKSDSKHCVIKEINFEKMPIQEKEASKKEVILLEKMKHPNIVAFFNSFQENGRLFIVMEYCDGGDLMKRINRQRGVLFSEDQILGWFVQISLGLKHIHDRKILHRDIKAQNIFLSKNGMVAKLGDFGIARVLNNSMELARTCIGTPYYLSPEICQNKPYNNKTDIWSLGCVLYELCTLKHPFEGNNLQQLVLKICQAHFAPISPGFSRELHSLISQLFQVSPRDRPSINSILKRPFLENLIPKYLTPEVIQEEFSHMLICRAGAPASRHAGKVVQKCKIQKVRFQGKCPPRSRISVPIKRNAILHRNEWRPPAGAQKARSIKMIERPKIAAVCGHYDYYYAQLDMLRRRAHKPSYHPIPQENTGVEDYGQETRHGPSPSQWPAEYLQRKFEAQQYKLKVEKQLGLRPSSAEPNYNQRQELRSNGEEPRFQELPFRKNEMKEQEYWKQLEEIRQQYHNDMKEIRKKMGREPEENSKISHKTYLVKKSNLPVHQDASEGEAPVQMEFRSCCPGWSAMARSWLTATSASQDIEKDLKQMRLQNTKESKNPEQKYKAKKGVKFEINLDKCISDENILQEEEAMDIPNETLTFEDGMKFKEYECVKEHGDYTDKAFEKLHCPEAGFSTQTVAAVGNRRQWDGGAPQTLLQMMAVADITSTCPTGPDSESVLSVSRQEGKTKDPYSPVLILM

[2] = target: T2, panel of 468 kinases (Homo sapiens, UniProt Q8IYT8); settings: ULK2; 1 μM; read-out: % control
T2 construct: purchased KINOMEscan (ScanMAX) service
T2 sequence (Q8IYT8 1-1036): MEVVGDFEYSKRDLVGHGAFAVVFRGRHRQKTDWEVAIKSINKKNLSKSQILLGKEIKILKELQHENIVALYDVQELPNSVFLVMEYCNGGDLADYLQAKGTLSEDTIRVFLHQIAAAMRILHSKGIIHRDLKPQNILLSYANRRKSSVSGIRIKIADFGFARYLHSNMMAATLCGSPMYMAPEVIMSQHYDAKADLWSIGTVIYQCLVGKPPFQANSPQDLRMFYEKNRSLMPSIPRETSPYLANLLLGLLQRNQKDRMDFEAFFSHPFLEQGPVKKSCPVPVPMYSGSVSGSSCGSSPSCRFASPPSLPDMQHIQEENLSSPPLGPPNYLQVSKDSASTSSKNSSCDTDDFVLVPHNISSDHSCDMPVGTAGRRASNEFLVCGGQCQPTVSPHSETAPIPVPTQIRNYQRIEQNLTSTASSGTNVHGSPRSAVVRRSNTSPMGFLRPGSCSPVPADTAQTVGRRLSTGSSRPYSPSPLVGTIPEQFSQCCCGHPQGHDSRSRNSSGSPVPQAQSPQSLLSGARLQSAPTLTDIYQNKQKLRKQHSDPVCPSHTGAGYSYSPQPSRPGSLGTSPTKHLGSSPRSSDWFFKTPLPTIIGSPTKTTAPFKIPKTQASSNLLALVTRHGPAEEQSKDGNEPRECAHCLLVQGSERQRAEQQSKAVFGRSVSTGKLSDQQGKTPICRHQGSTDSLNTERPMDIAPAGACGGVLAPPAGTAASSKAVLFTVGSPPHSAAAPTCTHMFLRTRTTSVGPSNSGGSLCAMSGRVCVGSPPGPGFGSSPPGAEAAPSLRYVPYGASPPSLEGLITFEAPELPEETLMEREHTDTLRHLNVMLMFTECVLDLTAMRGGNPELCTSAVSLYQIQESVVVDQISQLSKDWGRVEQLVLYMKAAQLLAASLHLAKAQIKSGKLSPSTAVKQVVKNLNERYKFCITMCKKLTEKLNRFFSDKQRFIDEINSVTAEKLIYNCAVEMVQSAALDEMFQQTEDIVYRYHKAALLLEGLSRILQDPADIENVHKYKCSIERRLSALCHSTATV

[3] = target: T3, panel of 468 kinases (Homo sapiens, UniProt Q9Y3S1); settings: WNK2; 1 μM; read-out: % control
T3 construct: purchased KINOMEscan (ScanMAX) service
T3 sequence (Q9Y3S1 whole entry): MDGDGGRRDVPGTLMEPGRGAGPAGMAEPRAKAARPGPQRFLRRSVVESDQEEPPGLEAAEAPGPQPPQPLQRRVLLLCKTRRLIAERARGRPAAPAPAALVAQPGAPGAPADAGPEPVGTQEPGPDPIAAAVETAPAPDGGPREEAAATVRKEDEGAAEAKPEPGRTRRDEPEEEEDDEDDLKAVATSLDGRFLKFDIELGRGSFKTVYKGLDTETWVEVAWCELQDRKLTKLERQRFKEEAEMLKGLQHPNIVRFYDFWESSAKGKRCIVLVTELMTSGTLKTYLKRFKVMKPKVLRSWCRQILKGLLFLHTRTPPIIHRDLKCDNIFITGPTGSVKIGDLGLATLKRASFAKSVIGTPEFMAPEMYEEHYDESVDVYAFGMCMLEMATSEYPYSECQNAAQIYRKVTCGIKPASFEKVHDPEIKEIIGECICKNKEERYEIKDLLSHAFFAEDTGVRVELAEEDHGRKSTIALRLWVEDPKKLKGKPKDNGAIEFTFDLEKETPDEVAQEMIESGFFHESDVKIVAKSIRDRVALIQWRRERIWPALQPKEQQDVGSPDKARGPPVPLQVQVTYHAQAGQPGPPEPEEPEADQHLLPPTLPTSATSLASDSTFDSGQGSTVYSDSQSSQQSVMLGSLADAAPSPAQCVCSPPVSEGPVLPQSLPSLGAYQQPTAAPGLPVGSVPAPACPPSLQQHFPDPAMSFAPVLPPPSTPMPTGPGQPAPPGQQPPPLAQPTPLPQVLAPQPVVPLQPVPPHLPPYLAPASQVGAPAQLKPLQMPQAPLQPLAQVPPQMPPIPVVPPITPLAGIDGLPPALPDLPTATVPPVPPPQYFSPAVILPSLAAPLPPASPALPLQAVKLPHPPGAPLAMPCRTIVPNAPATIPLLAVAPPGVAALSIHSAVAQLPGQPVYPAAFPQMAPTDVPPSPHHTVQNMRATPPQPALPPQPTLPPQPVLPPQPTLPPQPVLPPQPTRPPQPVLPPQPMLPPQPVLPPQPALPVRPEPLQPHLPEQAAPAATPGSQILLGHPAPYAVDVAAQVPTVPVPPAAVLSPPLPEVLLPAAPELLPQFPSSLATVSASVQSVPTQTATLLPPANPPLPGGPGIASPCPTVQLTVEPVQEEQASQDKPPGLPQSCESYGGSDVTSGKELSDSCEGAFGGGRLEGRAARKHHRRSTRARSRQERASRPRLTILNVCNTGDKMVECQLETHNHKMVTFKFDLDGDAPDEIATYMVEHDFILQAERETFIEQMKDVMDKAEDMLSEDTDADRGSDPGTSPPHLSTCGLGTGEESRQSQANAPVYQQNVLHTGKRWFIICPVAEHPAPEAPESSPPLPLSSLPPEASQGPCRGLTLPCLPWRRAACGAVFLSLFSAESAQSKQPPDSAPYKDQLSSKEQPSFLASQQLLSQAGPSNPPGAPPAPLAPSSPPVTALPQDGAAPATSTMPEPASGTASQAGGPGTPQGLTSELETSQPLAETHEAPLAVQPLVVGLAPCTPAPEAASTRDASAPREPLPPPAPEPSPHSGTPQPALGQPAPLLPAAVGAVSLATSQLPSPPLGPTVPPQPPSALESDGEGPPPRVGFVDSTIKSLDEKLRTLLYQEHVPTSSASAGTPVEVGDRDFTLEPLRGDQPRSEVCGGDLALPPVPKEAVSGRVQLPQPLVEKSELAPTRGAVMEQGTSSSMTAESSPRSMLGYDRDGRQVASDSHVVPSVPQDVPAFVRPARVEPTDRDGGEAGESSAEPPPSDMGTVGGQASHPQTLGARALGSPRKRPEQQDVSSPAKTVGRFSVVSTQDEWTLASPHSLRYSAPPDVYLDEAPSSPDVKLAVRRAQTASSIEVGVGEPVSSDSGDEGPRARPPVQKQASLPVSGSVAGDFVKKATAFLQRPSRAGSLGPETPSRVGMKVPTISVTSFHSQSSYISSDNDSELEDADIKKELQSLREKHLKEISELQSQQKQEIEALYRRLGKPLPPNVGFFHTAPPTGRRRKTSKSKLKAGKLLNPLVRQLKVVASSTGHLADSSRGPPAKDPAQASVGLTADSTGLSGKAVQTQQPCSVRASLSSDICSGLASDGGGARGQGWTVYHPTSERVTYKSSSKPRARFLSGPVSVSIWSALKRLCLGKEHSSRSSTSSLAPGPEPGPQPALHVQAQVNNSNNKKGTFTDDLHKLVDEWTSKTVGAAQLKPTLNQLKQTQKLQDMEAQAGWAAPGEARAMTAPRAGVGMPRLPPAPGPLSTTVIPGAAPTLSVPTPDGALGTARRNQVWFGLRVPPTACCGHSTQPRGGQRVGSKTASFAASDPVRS

Work on `CNc1nc(Nc2ccc(S(=O)(=O)N3CCC(N4CCOCC4)CC3)cc2OC)nc2[nH]cc(Cl)c12` [Compound 12, 5-chloro-N2-(2-methoxy-4-((4-morpholinopiperidin-1-yl)sulfonyl)phenyl)-N4-methyl-7H-pyrrolo[2,3-d]pyrimidine-2,4-diamine] yielded a remaining binding at 1 µM [1] of 100%, a remaining binding at 1 µM [2] of 96% and a remaining binding at 1 µM [3] of 62%.

In the case of `CNc1nc(Nc2ccc(C(=O)N3CCC(N4CCOCC4)CC3)c3c2OCO3)nc2[nH]cc(Cl)c12` [Compound 75, (7-((5-chloro-4-(methylamino)-7H-pyrrolo[2,3-d]pyrimidin-2-yl)amino)benzo[d][1,3]dioxol-4-yl)(4-morpholinopiperidin-1-yl)methanone], the remaining binding at 1 µM [1] is reported as 97%, the remaining binding at 1 µM [2] is reported as 79% and the remaining binding at 1 µM [3] is reported as 69%.

`CNc1nc(Nc2ccc(P3(=O)CCN(C4CCOCC4)CC3)cc2OC)nc2[nH]cc(Cl)c12` [Compound 77, 4-(4-((5-chloro-4-(methylamino)-7H-pyrrolo[2,3-d]pyrimidin-2-yl)amino)-3-methoxyphenyl)-1-(tetrahydro-2H-pyran-4-yl)-1,4-azaphosphinane 4-oxide] showed a remaining binding at 1 µM [1] of 98%, a remaining binding at 1 µM [2] of 91% and a remaining binding at 1 µM [3] of 71%.

Reference: patent US12479847B2 (DANA-FARBER CANCER INSTITUTE, INC., priority 2019, dated 2025)
